Results published in PubChem BioAssay (NCI).
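All cell lines were grown in 96-well plates and treated with compound for 48 hours. TGI is the concentration that stops growth completely.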

Columns and labels:
Assay in all cases: NCI-60 cell line screen, 48 h
[1] = test system: 786-0 renal
[2] = test system: A498 renal
[3] = test system: A549 NSCLC
[4] = test system: ACHN renal
[5] = test system: BT-549 breast
[6] = test system: CAKI-1 renal
[7] = test system: COLO 205 colon
[8] = test system: DU-145 prostate
[9] = test system: EKVX NSCLC
[10] = test system: HCC-2998 colon
[11] = test system: HCT-116 colon
[12] = test system: HCT-15 colon
[13] = test system: HOP-92 NSCLC
[14] = test system: HS 578T breast
[15] = test system: HT29 colon
[16] = test system: IGROV1 ovarian
[17] = test system: K-562 leukemia
[18] = test system: KM12 colon
[19] = test system: LOX IMVI melanoma
[20] = test system: M14 melanoma
[21] = test system: MALME-3M melanoma
[22] = test system: MCF7 breast
[23] = test system: MDA-MB-231 breast
[24] = test system: MDA-MB-435
[25] = test system: MDA-N
[26] = test system: MOLT-4 leukemia
[27] = test system: NCI-H226 lung
[28] = test system: NCI-H23 lung
[29] = test system: NCI-H460 lung
[30] = test system: NCI-H522 lung
[31] = test system: NCI/ADR-RES ovarian
[32] = test system: OVCAR-3 ovarian
[33] = test system: OVCAR-4 ovarian
[34] = test system: OVCAR-5 ovarian
[35] = test system: OVCAR-8 ovarian
[36] = test system: PC-3 prostate
[37] = test system: RPMI-8226 leukemia
[38] = test system: SF-268 CNS
[39] = test system: SF-295 CNS
[40] = test system: SF-539 CNS
[41] = test system: SK-MEL-2 melanoma
[42] = test system: SK-MEL-28 melanoma
[43] = test system: SK-MEL-5 melanoma
[44] = test system: SK-OV-3 ovarian
[45] = test system: SN12C renal
[46] = test system: SNB-19 CNS
[47] = test system: SW-620 colon
[48] = test system: T-47D breast
[49] = test system: TK-10 renal
[50] = test system: U251 CNS
[51] = test system: UACC-257 melanoma
[52] = test system: UACC-62 melanoma
[53] = test system: UO-31 renal
[54] = test system: CCRF-CEM leukemia
[55] = test system: HL-60(TB) leukemia
[56] = test system: HOP-62 NSCLC
[57] = test system: RXF 393 renal
[58] = test system: SR leukemia

SMILES: O=c1[nH]nc(Cc2ccccc2)n1CCO
- TGI [1]: > 100 µM
- TGI [2]: > 100 µM
- TGI [3]: > 100 µM
- TGI [4]: > 100 µM
- TGI [5]: > 100 µM
- TGI [6]: > 100 µM
- TGI [7]: > 100 µM
- TGI [8]: > 100 µM
- TGI [9]: > 100 µM
- TGI [10]: > 100 µM
- TGI [11]: > 100 µM
- TGI [12]: > 100 µM
- TGI [13]: > 100 µM
- TGI [14]: > 100 µM
- TGI [15]: > 100 µM
- TGI [16]: > 100 µM
- TGI [17]: > 100 µM
- TGI [18]: > 100 µM
- TGI [19]: > 100 µM
- TGI [20]: > 100 µM
- TGI [21]: > 100 µM
- TGI [22]: > 100 µM
- TGI [23]: > 100 µM
- TGI [24]: > 100 µM
- TGI [25]: > 100 µM
- TGI [26]: > 100 µM
- TGI [27]: > 100 µM
- TGI [28]: > 100 µM
- TGI [29]: > 100 µM
- TGI [30]: > 100 µM
- TGI [31]: > 100 µM
- TGI [32]: > 100 µM
- TGI [33]: > 100 µM
- TGI [34]: > 100 µM
- TGI [35]: > 100 µM
- TGI [36]: > 100 µM
- TGI [37]: > 100 µM
- TGI [38]: > 100 µM
- TGI [39]: > 100 µM
- TGI [40]: > 100 µM
- TGI [41]: > 100 µM
- TGI [42]: > 100 µM
- TGI [43]: > 100 µM
- TGI [44]: > 100 µM
- TGI [45]: > 100 µM
- TGI [46]: > 100 µM
- TGI [47]: > 100 µM
- TGI [48]: > 100 µM
- TGI [49]: > 100 µM
- TGI [50]: > 100 µM
- TGI [51]: > 100 µM
- TGI [52]: > 100 µM
- TGI [53]: > 100 µM

SMILES: Clc1ccc(C2Nc3ccccc3C3=NCCN32)cc1 (stereo not drawn)
- TGI [1]: 48.9 µM
- TGI [2]: 63.7 µM
- TGI [3]: > 100 µM
- TGI [4]: > 100 µM
- TGI [5]: 56.5 µM
- TGI [6]: > 100 µM
- TGI [54]: > 100 µM
- TGI [7]: 25.7 µM
- TGI [8]: > 100 µM
- TGI [9]: 93.7 µM
- TGI [11]: 71.5 µM
- TGI [12]: > 100 µM
- TGI [55]: 57.1 µM
- TGI [56]: > 100 µM
- TGI [13]: 34 µM
- TGI [14]: > 100 µM
- TGI [15]: 38.5 µM
- TGI [16]: 49.2 µM
- TGI [17]: 46.2 µM
- TGI [18]: 40.2 µM
- TGI [19]: 36.2 µM
- TGI [20]: 30.6 µM
- TGI [21]: 32.1 µM
- TGI [22]: 57.3 µM
- TGI [23]: > 100 µM
- TGI [24]: 39.8 µM
- TGI [25]: 39.8 µM
- TGI [26]: > 100 µM
- TGI [28]: 55.4 µM
- TGI [29]: 53 µM
- TGI [31]: 60.4 µM
- TGI [32]: > 100 µM
- TGI [33]: > 100 µM
- TGI [34]: > 100 µM
- TGI [35]: 38.3 µM
- TGI [36]: > 100 µM
- TGI [37]: 42.4 µM
- TGI [57]: 58.8 µM
- TGI [38]: 84.5 µM
- TGI [39]: 35.4 µM
- TGI [40]: 30.6 µM
- TGI [41]: 41.3 µM
- TGI [42]: 34.6 µM
- TGI [43]: 34.4 µM
- TGI [44]: > 100 µM
- TGI [45]: > 100 µM
- TGI [46]: 94.9 µM
- TGI [58]: 59.2 µM
- TGI [47]: 98.6 µM
- TGI [48]: 46.9 µM
- TGI [49]: 39.5 µM
- TGI [50]: 78.6 µM
- TGI [51]: 36 µM
- TGI [52]: 32.3 µM
- TGI [53]: > 100 µM
